Laboratory results: ChEMBL document CHEMBL1201862, “PubChem BioAssay data set” (2004)
Activity calls are given as the source filed them.

Key:
[1] = biological target: T1, Short transient receptor potential channel 4 (Mus musculus, UniProt Q9QUQ5); experiment: calcium entry via TRPC4 opening agents – cell-based, HEK293 TRPC4/mu-opioid, Fluo-4 calcium, dose response (AID 434937); format: functional
T1 sequence (Q9QUQ5 whole entry): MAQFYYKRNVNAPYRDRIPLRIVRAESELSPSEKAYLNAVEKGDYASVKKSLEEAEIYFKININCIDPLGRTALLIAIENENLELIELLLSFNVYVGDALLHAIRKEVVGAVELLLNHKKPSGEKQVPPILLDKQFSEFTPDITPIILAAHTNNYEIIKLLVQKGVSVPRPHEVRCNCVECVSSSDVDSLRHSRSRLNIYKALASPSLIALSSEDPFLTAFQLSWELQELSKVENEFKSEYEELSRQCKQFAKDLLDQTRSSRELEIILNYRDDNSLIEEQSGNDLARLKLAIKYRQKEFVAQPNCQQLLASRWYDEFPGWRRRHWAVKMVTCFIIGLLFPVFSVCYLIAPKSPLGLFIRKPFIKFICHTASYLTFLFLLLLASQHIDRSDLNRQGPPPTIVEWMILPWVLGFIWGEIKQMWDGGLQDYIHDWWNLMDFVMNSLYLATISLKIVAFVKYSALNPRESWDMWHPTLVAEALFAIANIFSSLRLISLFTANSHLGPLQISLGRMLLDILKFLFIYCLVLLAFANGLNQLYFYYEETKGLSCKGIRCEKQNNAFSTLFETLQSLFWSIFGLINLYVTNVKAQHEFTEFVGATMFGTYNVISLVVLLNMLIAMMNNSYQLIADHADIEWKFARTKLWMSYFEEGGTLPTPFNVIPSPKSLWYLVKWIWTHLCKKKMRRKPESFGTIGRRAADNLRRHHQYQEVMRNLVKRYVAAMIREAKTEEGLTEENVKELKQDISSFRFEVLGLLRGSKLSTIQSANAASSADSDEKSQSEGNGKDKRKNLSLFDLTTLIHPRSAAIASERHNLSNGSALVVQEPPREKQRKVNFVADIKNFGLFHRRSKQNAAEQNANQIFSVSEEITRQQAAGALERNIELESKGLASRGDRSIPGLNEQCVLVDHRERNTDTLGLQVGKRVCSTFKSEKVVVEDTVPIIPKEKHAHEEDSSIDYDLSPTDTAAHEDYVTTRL

[2] = tested on: H9c2; experiment: cells; format: functional, cell-based; conditions: Rattus norvegicus, H9c2, Myocardium;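 also: confirmatory concentration-response retest of ultra-high-throughput screening hits for modulation of myocardial damage; cell death induced by hydrogen peroxide oxidative stress; compound pretreatment for 60 min then peroxide exposure for 2 h; potency is for protecting the cells against peroxide damage rather than for killing them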
[3] = growth inhibition of PfATP4-mutant resistant parasites – NITD609-resistant line, SYBR Green, dry powder, dose response (AID 1159571); format: functional, cell-based;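 also: parasites synchronized at ring stage by sorbitol before testing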
[4] = P. falciparum Dd2 growth inhibitors, dose response, SYBR Green, cherry-picked samples (AID 1159567); format: functional, cell-based
[5] = growth inhibition of yeast DHODH-expressing 3D7 parasites – SYBR Green, dry powder samples, dose response (AID 1159570); format: functional, cell-based;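 also: parasite growth measured after 72 hours of compound exposure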
[6] = Dd2 malaria parasite growth inhibition potency – SYBR Green, dry powder samples, dose response (AID 1159566); format: functional, cell-based;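 also: potency for growth inhibition with lower SYBR green DNA signal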
[7] = biological target: T2, Carboxy-terminal domain RNA polymerase II polypeptide A small phosphatase 1 (Homo sapiens, UniProt Q9GZU7); experiment: CTDSP1 inhibitors, concentration-response, biochemical, absorbance readout, ultra-high-throughput screen actives (AID 540297); format: functional
T2 sequence (Q9GZU7 whole entry): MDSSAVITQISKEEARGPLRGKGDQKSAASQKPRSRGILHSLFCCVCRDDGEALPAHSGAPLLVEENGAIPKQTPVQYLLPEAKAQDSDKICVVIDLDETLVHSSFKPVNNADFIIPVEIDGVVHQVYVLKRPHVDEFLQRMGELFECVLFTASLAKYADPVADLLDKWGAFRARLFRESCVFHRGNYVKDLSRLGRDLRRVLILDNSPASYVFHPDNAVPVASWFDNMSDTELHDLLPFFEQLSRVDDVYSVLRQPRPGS

[8] = biological target: Paired box protein Pax-8 (Homo sapiens, UniProt Q06710); experiment: PAX8 transcriptional activity inhibition in RMG-I – RMG-I cells, luciferase, cherry-pick, dose response (AID 687027); format: functional, cell-based;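 also: luciferase reporter driven by Pax8 target thyroperoxidase promoter measured by SteadyGlo luminescence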
Sequence of Paired box protein Pax-8 (Q06710 whole entry): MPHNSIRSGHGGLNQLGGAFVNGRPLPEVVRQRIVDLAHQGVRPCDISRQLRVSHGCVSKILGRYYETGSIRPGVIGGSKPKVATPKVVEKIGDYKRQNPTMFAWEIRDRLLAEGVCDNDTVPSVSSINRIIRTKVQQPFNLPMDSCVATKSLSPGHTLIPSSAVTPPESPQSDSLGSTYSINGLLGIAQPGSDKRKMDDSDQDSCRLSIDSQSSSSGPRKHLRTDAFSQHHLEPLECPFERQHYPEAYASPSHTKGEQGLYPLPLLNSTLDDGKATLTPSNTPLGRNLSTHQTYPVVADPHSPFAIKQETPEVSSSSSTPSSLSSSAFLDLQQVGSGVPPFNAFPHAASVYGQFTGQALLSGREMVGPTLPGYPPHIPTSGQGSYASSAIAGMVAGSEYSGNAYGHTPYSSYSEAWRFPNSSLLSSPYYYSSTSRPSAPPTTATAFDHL

[9] = OVCAR8 cell viability loss – plate reader, dry powder samples, PAX8 project, dose response (AID 743197); format: functional, cell-based; conditions: OVCAR-8
[10] = biological target: T3, DNA repair protein RAD52 homolog (Homo sapiens, UniProt P43351); format: functional, biochemical
T3 sequence (P43351 whole entry): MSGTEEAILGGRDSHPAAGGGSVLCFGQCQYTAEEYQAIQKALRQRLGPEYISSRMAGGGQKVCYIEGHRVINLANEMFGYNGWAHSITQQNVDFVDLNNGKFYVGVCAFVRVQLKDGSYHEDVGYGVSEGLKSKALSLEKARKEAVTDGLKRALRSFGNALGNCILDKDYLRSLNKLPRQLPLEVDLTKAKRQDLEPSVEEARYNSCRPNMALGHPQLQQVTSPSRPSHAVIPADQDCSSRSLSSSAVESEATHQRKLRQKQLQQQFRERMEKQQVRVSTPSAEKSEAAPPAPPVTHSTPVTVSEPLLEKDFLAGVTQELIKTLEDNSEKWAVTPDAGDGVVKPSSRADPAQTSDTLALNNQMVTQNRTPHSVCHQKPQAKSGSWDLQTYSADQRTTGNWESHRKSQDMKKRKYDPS

[11] = biological target: T4, Ubiquitin-conjugating enzyme E2 N (Homo sapiens, UniProt P61088); format: functional;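 also: Dose-response confirmation in a TR-FRET assay detecting UBC13-driven polyubiquitin chain formation, inhibition measured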
T4 sequence (P61088 whole entry): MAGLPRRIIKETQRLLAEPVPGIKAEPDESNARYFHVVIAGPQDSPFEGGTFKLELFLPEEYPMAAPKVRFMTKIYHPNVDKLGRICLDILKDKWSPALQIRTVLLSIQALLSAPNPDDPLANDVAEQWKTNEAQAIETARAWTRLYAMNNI

[12] = tested on: Streptococcus sp. 'group A'; experiment: Streptococcus pyogenes SK(-)GAS viability under kanamycin – luminescence, BacTiterGlo, confirmation, counter-screen for streptokinase expression inhibitor project, dose response (AID 1900); format: functional, organism-based
[13] = alpha-synuclein stem-loop luciferase translation blockers – H4 neuroglioma cells, luminescence, confirmation (AID 1988); format: functional, cell-based
[14] = Luminescence Cell-Based Dose Response HTS to Identify Inhibitors of 5'UTR Stem-Loop Driven Prion Protein mRNA Translation in H4 Neuroglioblastoma Cells. [Related pubchem assays: 1827 (Project Summary), 1813 (Primary HTS)]; format: functional
[15] = tested on: Streptococcus; experiment: GAS UMAA2166 growth inhibition – luminescence, BacTiterGlo, counter-screen for streptokinase expression inhibitor project, dose response (AID 1915); format: functional, organism-based;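 also: potency for reduction of bacterial viability or growth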
[16] = luciferase reporter signal suppression in cells – H4 neuroglioma cells, luminescence, dose response (AID 1990); format: functional, cell-based
[17] = NIH3T3 cell viability loss – ATP luminescence, mouse fibroblasts, counter-screen, dose response (AID 2010); format: functional, cell-based;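 also: cells exposed to compound for about 90 hours before reading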
[18] = Trypanosoma cruzi growth suppression in host cells – NIH3T3 host cells, beta-gal luminescence, confirmation (AID 2044); format: functional, cell-based;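 also: intracellular parasites grown in NIH/3T3 mouse fibroblasts as host cells; luminescent beta-galactosidase reporter signal from transgenic T. cruzi replicating inside host cells; inhibitors lower the luminescence signal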
[19] = OVCAR-3 cell viability loss – plate reader, dry powder samples, PAX8 inhibitor project, dose response (AID 743044); format: functional, cell-based
[20] = biological target: Genome polyprotein (dengue virus type 2, UniProt P29990); experiment: flavivirus cap methylation enzyme inhibition – biochemical, confirmation dose response, primary screen (AID 588689); format: functional
Sequence of Genome polyprotein (P29990 2492-3391 limits assumed): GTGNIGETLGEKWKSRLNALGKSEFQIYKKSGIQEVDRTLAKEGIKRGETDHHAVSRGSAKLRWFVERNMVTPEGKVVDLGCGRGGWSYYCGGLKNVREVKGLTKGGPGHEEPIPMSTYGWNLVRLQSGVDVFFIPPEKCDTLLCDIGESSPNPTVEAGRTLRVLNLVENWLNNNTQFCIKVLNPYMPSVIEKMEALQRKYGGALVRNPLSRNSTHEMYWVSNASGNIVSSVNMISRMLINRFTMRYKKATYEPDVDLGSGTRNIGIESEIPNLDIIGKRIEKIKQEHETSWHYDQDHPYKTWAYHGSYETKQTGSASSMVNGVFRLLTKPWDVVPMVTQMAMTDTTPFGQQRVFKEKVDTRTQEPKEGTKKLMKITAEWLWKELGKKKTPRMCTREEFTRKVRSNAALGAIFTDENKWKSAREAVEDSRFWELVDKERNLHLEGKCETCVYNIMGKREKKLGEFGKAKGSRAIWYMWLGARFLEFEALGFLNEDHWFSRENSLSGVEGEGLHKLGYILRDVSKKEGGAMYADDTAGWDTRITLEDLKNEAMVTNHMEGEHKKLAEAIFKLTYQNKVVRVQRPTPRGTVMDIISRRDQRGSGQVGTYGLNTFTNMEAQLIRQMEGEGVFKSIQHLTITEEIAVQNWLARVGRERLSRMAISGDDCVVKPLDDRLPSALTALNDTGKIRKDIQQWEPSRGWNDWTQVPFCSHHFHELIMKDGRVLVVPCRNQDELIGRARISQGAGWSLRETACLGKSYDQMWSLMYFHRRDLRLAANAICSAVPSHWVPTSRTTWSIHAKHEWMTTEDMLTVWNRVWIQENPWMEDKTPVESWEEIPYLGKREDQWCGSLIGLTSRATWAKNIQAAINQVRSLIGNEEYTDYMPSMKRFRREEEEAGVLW

[21] = HEK-293T cell viability reduction – luminescence, B-cell screen hits, cytotoxicity control for BCR NF-kB inhibitor project, dose response (AID 489021); format: functional, cell-based;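 also: HEK-293T cells carrying an NF-kB luciferase reporter; cells exposed to compound for about 14 hours before viability readout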
[22] = Vero E6 cell cytotoxicity, dose response, cytotoxicity control for non-replicating M. tuberculosis project, secondary assay (AID 492998); format: functional, VeroE6; conditions: Vero C1008
[23] = THP-1 cell cytotoxicity, dose response, cytotoxicity control for non-replicating M. tuberculosis project (AID 489025); format: functional
[24] = cells; format: functional

Structure (SMILES): COc1ccc(/C=N/NC(=O)C2COc3ccccc3O2)cc1OC (centres undefined)
- EC50 [1]: 0.841 µM (active)

Structure (SMILES): Cc1ccc(S(=O)(=O)N2CCN(C(=O)c3cc(O)nc4ccccc34)CC2)c(C)c1
- IC50 [2]: > 79 µM (inactive)

Structure (SMILES): CC1(C)CC2CC(C)(CN2C(=O)COC(=O)Cn2[nH]c(=O)c3ccccc3c2=O)C1 (centres undefined)
- IC50 [2]: 12.1 µM (active)

Structure (SMILES): C[C@H]1CN([C@@H](C)CO)C(=O)c2c(c3ccccc3n2C)-c2ccccc2CO[C@@H]1CN(C)S(=O)(=O)c1ccc(F)cc1
- AC50 [3]: 1.15 µM (active)
- AC50 [4]: 1.89 µM (active)
- AC50 [5]: 1.4 µM (active)
- AC50 [6]: 0.755 µM (active)

Structure (SMILES): O=C(Oc1ccc(/C=N/NC(=O)c2ccccc2O)cc1)c1ccccc1
- IC50 [7]: 8.03 µM (active)

Structure (SMILES): Cc1ccc(S(=O)(=O)Nc2ccc3c(c2)C(=O)N([C@@H](C)CO)C[C@H](C)[C@H](CN(C)Cc2ccc(C(F)(F)F)cc2)OCCCC[C@@H](C)O3)cc1
- AC50 [8]: 7.03 µM (active)
- AC50 [9]: > 70 µM (inactive)

Structure (SMILES): COc1cc(Nc2nc3ccccc3n3nnnc23)cc(OC)c1OC
- IC50 [2]: > 79 µM (inactive)

Structure (SMILES): CC[C@H](C)Cc1cn([C@@H](CCCCN)C(=O)NCCCCCCCCCCC(=O)N2CCNCC2)nn1
- AC50 [10]: 13.2 µM (active)
- IC50 [11]: > 20 µM (inactive)

Structure (SMILES): CSc1ccc(CCNC(=O)CSc2ccsc2[N+](=O)[O-])cc1
- IC50 [7]: 7.88 µM (active)

Structure (SMILES): NC(=O)c1cc2ccccc2o/c1=N\NC(=O)c1ccc(F)cc1
- IC50 [2]: > 79 µM (inactive)

Structure (SMILES): COCCN1CCN(c2c3c(nc4cc(-c5cccc(F)c5)nn24)CCC3)CC1
- IC50 [2]: 6.93 µM (active)

Structure (SMILES): Cc1ccc(-n2nc(-c3ccco3)cc2C(=O)O)cc1
- IC50 [7]: 3.82 µM (active)

Structure (SMILES): CCCOc1ccc(C(=O)NNC(=S)NC(=O)c2ccccc2)cc1
- EC50 [12]: 0.54 µM (active)
- EC50 [13]: > 120 µM (not active)
- EC50 [14]: 14.5 µM (active)
- EC50 [1]: 3.35 µM (active)
- EC50 [15]: 0.762 µM (active)
- EC50 [16]: 12.5 µM (active)

Structure (SMILES): CCCCCc1c(O)nc(SCCN(C)C)nc1O
- EC50 [1]: 4.22 µM (active)

Structure (SMILES): COc1ccc(-c2cc3nc(NCCCN(C)C)n(C)c(=O)c3s2)c(C)c1
- AC50 [10]: 29.3 µM (active)

Structure (SMILES): CC1(C)OC(=O)C(=Cc2ccc(-c3ccc(Cl)c(C(=O)O)c3)o2)C(=O)O1
- IC50 [7]: 4.62 µM (active)

Structure (SMILES): CCCc1cn(CC[C@@H]2CC[C@H](NS(=O)(=O)c3ccc(-c4ccccc4)cc3)[C@H](CO)O2)nn1
- AC50 [3]: 0.883 µM (active)
- AC50 [4]: 1.39 µM (active)
- AC50 [5]: 0.916 µM (active)
- AC50 [6]: 0.332 µM (active)

Structure (SMILES): Cc1ccc(S(=O)(=O)N(C)C[C@H]2OCc3ccccc3-c3c(n(C)c4ccccc34)C(=O)N([C@@H](C)CO)C[C@@H]2C)cc1
- AC50 [3]: 0.807 µM (active)
- AC50 [4]: 1.53 µM (active)
- AC50 [5]: 1.21 µM (active)
- AC50 [6]: 0.818 µM (active)

Structure (SMILES): Clc1cccc(OCCN2CCNCC2)c1
- EC50 [17]: > 60 µM (not active)
- EC50 [18]: 0.744 µM (active)
- EC50 [1]: 0.841 µM (active)

Structure (SMILES): CC(C)NC(=O)N(C)C[C@H]1OCCCC[C@@H](C)Oc2ccc(NC(=O)Nc3ccc(C(F)(F)F)cc3)cc2C(=O)N([C@@H](C)CO)C[C@H]1C
- AC50 [8]: 8.11 µM (active)
- AC50 [19]: 32.7 µM (active)
- AC50 [9]: 48.9 µM (active)

Structure (SMILES): O=C(CN1C(=O)/C(=C2/SC(=S)N(CCS(=O)(=O)O)C2=O)c2ccccc21)Nc1cccc(Br)c1
- IC50 [20]: 61.6 µM (active)
- IC50 [7]: 3.22 µM (active)

Structure (SMILES): O=C(C1CCCCC1)N1[C@H](CO)[C@@H](c2ccccc2)C12CN(Cc1cccc(Cl)c1)C2
- AC50 [3]: 0.606 µM (active)
- AC50 [4]: 1.43 µM (active)
- AC50 [5]: 0.651 µM (active)
- AC50 [6]: 0.353 µM (active)

Structure (SMILES): COc1cc(/C=C2/SC(=S)N(CCC(=O)Nc3ccc(C(=O)O)cc3)C2=O)cc(OC)c1OC
- IC50 [7]: 6.91 µM (active)

Structure (SMILES): Cc1c(CCC(=O)N2CCC[C@H]2C(=O)O)c(=O)oc2cc3oc4c(c3cc12)CCCC4
- EC50 [13]: 10.2 µM (active)
- EC50 [16]: 8.13 µM (active)
- IC50 [21]: > 80 µM (inactive)

Structure (SMILES): C[C@H]1CCCCO[C@H](CN(C)S(=O)(=O)c2ccc(F)cc2)[C@@H](C)CN([C@@H](C)CO)C(=O)c2cc(NS(=O)(=O)c3ccc(Cl)cc3)ccc2O1
- AC50 [8]: 5.92 µM (active)
- AC50 [19]: 49.2 µM (active)
- AC50 [9]: 60.6 µM (active)

Structure (SMILES): CC(=O)N(CCN(C)C)c1nc2cc3c(cc2s1)OCCO3
- AC50 [10]: 11.4 µM (active)

Structure (SMILES): CCCn1c(=O)c(C(=O)Nc2ccccc2)c(O)c2ccccc21
- IC50 [2]: 9.48 µM (active)

Structure (SMILES): Cc1cc(N2CCN(c3ccccc3)CC2)nc(-n2nc(C)cc2C)n1
- CC50 [22]: > 20 µM (active)
- CC50 [23]: > 40 µM (active)
- IC50 [24]: 0.94 µM (active)

Structure (SMILES): O=C(NCCCN1CCN(CCCNC(=O)c2ccc3c(c2)OCO3)CC1)c1ccc2c(c1)OCO2
- EC50 [1]: 0.267 µM (active)
